Experimental data: patent publication US20120321609A1, “METHOD OF TREATING PSYCHOLOGICAL DISORDERS” (priority 2011, published 2012)

Assays:
5-HT2AR = target: T1, 5-HT2AR (Homo sapiens, UniProt P28223); experiment: 5-HT-stimulated inositol phosphate formation in HEK 293 cells co-expressing CRFR2 and 5-HT2AR; type: cell-based; conditions: CRF 500 nM pretreatment 30 min
T1 construct: expressed in transfected cells; host or cells: HEK 293

mouse neuronal cultures = experiment: Inositol phosphate formation in mouse cortical neuronal cultures; type: cell-based; conditions: CRF 500 nM pretreatment 30 min; 5-HT 50 μM
[1] = system: slices prepared from prefrontal cortex; experiment: Inositol phosphate formation in prefrontal cortex slices; type: cell-based, mouse; conditions: CRF 500 nM pretreatment
Description: Slices were incubated for 15 min at 37° C. […] (final volume=270 μl).

mice = experiment: Open field test (anxiety-related behaviour); type: in vivo, mouse; conditions: 5 min test; CRF 1.5 μg into medial prefrontal cortex, DOI 0.15 mg/kg i.p.; vs vehicle-vehicle or single treatment
Description: Male CD-1 mice were obtained from Charles River Canada (St. Constant, Quebec) at 50-60 days of age, and were acclimatized to the laboratory for approximately 30 days before serving as experimental subjects. Mice were housed four per cage, until the time of surgery, after which they were housed individually. The vivarium was maintained on a 12-h light/dark cycle in a temperature (21° C.) controlled room with food and water freely available. Mice were anesthetized using isoflurane and stereotaxic surgery (David Kopf Instruments Model 940) was performed to install a cannulae into the medial prefrontal cortex. A Guide cannulae (Plastics One In), situated according to the mouse atlas of Franklin and Paxinos at Lateral=0.32 mm, D/V=2.25 mm, A/P=+2.68 mm. A dummy cannula, was inserted flush with guide. Approximately 1 week after behavioral testing mice were perfused with 4% paraformaldehyde. […]
In an initial test, mice were placed in a 45×45 cm open field, with an inner square of 21×24×24 cm., for a 5 min period, during which the time to enter the center area, and the total time spent in the center portion of the arena was recorded. […] Mice were individually placed in one of the enclosed arms of a plus-maze and the behavior of the animals was recorded over a 5 min period by a ceiling-mounted video camera. […]

ERK1/2 = ERK1/2 phosphorylation immunoblot in HEK 293 cells; type: cell-based, human; conditions: 500 nM CRF; 0, 2, 5, 15 and 30 min
Description: Following transfection, HEK 293 cells were re-seeded into 6-well plates. […] Cells were lysed with lysis buffer (50 mM Tris, pH 8.0, 150 mM NaCl, and 0.1% Triton X-100) containing protease inhibitors (1 mM AEBSF, 10 μg/ml leupeptin, and 5 μg/ml aprotinin) for 20 min on a rocking platform at 4° C. Samples were collected into 1.5 mL Eppendorf tubes and centrifuged at 15,000 g for 15 min at 4° C. to pellet insoluble material. A […] protein assay was performed and 50 μg of protein was incubated overnight at room temperature in 3×SDS Loading Buffer containing 2-mercaptoethanol. Samples were separated by SDS-PAGE, transferred to a nitrocellulose membrane, and immunoblotted for ERK1/2 (rabbit anti-p44/42 mitogen-activated protein kinase (MAPK), 1:1000), phospho-ERK1/2 (rabbit anti-phospho-p44/42 MAPK, 1:1000), SAP97 (mouse anti-SAP97, 1:1000), and HA-CRFR1 expression (mouse anti-HA, 1:1000), followed by a horseradish peroxidase-conjugated secondary anti-rabbit antibody (1:10,000) or anti-mouse antibody (1:10,000) where appropriate. Proteins were detected using chemiluminescence with the enhanced chemiluminescence kit from GE Healthcare.

T1 sequence (P28223 whole entry): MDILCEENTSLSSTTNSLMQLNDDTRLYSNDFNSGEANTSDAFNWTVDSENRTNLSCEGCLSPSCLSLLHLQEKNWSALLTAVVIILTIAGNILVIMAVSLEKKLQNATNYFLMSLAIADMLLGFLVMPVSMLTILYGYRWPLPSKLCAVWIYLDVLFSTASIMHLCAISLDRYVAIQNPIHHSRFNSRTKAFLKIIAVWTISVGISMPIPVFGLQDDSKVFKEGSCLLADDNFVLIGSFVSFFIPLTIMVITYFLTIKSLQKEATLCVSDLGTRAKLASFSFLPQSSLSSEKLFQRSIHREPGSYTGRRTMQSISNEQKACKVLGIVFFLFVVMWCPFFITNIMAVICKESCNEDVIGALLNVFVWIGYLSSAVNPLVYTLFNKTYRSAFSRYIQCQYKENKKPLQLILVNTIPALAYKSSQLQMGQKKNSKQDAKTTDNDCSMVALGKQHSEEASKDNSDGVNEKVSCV

## CRF: 41 amino acid peptide that activates the HPA axis; agonist of CRF receptors
5-HT2AR
  effect of pretreatment on 5-HT2AR-stimulated inositol phosphate responses: did not increase
Mouse neuronal cultures
  effect of pretreatment on 5-HT-stimulated [3H]-myo-inositol conversion to inositol phosphate: significantly increase
[1]; stimulated with 5-HT
  increase in 5-HT-stimulated inositol phosphate formation: 2.3±0.2 fold
[1]; stimulated with DOI 10 μM
  increase in DOI-stimulated inositol phosphate formation: 1.5±0.2 fold
mice
  latency to enter the center square of open field: neither the CRF nor the DOI treatments alone influenced performance
ERK1/2
  ERK1/2 phosphorylation in cells transfected with HA-CRFR1 and scrambled shRNA: more robust and sustained activation
  ERK1/2 phosphorylation in non-transfected HEK 293 cells: increase in detectable ERK1/2 phosphorylation at 5 min
